# From US20230391772A1, “METHODS AND COMPOSITIONS FOR TARGETED PROTEIN DEGRADATION” (Ranok Therapeutics (Hangzhou) Co. Ltd., priority 2020, published 2023)
# pEC50, pIC50: −log10 of the molar value.
# Legend:
# [1] = test system: MIA PaCa-2 human pancreatic carcinoma; assay: MIA PaCa-2 CCK-8 proliferation assay; format: cell-based; details: MIA PaCa-2 cells
# How it was run: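 KRAS(G12C) lines were used: MIA PaCa-2 with 2 copies, and NCI-H358 and NCI-H23 with 1 copy each. Cells were treated with 3-fold compound dilutions from 20 μM to 1.02 nM, and proliferation was read by CCK-8 absorbance. % inhibition was calculated against DMSO-treated cells after subtracting the cell-free medium blank.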
# KRAS(G12C) [2] = molecular target: T1, KRAS(G12C) (Homo sapiens, UniProt P01116, G12C); assay: KRAS(G12C)/SOS1 homogeneous time-resolved fluorescence (HTRF) assay; set-up: purchased Cisbio 63ADK000CB16PEG; details: absence of GTP, 4° C. for 3 hr, read-out: KRAS (G12C) binding
# How it was run: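 HTRF kit measuring compound-induced block of KRAS(G12C)-SOS1 interaction without GTP. Compounds tested as 3-fold serial dilutions down to 1.02 nM, incubated with reaction components 3 h at 4 °C in sealed plates before fluorescence read.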
# KRAS(G12C) [3] = molecular target: T1, KRAS(G12C); assay: KRAS(G12C) Western blot protein degradation assay in LU65A cells; format: cell-based; set-up: LU65A human lung cancer cell line, which expresses KRAS(G12C); host or cells: LU65A; details: 6 hr
# How it was run: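 Cells treated with compound at various concentrations at 37 °C for 48 hr (MIA PaCa-2) or 6 hr (LU65A), then lysed in RIPA. Protein-normalized lysates immunoblotted for KRAS with β-actin, fluorescence quantified; DC50 is the concentration giving 50% of maximal KRAS degradation.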
compound,measurement,setting,value
"C=CC(=O)N1CCN(c2nc(OC[C@@H]3C[C@H](N4CCN(C(=O)C5CCN(Cc6ccc(-n7c(O)nnc7-c7cc(C(C)C)c(O)cc7O)cc6)CC5)CC4)CN3C)nc3c2CCN(c2cccc4cccc(Cl)c24)C3)C[C@@H]1CC#N [Compound 264, 2-[(2S)-4-[7-(8-chloronaphthalen-1-yl)-2-{[(2S,4S)-4-{4-[1-({4-[3-(2,4-dihydroxy-5-isopropylphenyl)-5-hydroxy-1,2,4-triazol-4-yl]phenyl}methyl)piperidine-4-carbonyl]piperazin-1-yl}-1-methylpyrrolidin-2-yl]methoxy}-5H,6H,8H-pyrido[3,4-d]pyrimidin-4-yl]-1-(prop-2-enoyl)piperazin-2-yl]acetonitrile]",pEC50,"[1]; Homo sapiens, MIA PaCa-2, 72 h",6.00 to 7.00
same,pIC50,KRAS(G12C) [2],> 7.00
same,DC50,KRAS(G12C) [3],0.1 to 1 µM
"C=CC(=O)N1CCN(c2nc(OC[C@@H]3C[C@H](N4CCN(C(=O)C5CCN(Cc6ccc(-n7c(O)nnc7-c7cc(C)c(O)cc7O)cc6)CC5)CC4)CN3C)nc3c2CCN(c2cccc4cccc(Cl)c24)C3)C[C@@H]1CC#N [Compound 265, 2-[(2S)-4-[7-(8-chloronaphthalen-1-yl)-2-{[(2S,4S)-4-{4-[1-({4-[3-(2,4-dihydroxy-5-methylphenyl)-5-hydroxy-1,2,4-triazol-4-yl]phenyl}methyl)piperidine-4-carbonyl]piperazin-1-yl}-1-methylpyrrolidin-2-yl]methoxy}-5H,6H,8H-pyrido[3,4-d]pyrimidin-4-yl]-1-(prop-2-enoyl)piperazin-2-yl]acetonitrile]",pEC50,"[1]; Homo sapiens, MIA PaCa-2, 72 h",< 6.00
same,pIC50,KRAS(G12C) [2],> 7.00
same,DC50,KRAS(G12C) [3],> 1 µM
"C=CC(=O)N1CCN(c2nc(OC[C@@H]3C[C@H](N4CCN(Cc5ccc(-n6c(O)nnc6-c6cc(C(C)C)c(O)cc6O)cc5)CC4)CN3C)nc3c2CCN(c2cccc4cccc(C)c24)C3)C[C@@H]1CC#N [Compound 279, 2-[(2S)-4-(2-{[(2S,4S)-4-[4-({4-[3-(2,4-dihydroxy-5-isopropylphenyl)-5-hydroxy-1,2,4-triazol-4-yl]phenyl}methyl)piperazin-1-yl]-1-methylpyrrolidin-2-yl]methox-y}-7-(8-methylnaphthalen-1-yl)-5H,6H,8H-pyrido[3,4-d]pyrimidin-4-yl)-1-(prop-2-enoyl)piperazin-2-yl]acetonitrile]",pEC50,"[1]; Homo sapiens, MIA PaCa-2, 72 h",6.00 to 7.00
same,pIC50,KRAS(G12C) [2],> 7.00
same,DC50,KRAS(G12C) [3],0.1 to 1 µM
"C=CC(=O)N1CCN(c2nc(OC[C@@H]3C[C@H](N4CCC(C(=O)N5CCN(Cc6ccc(-n7c(O)nnc7-c7cc(C)c(O)cc7O)cc6)CC5)CC4)CN3C)nc3c2CCN(c2cccc4ccccc24)C3)C[C@@H]1CC#N [Compound 247, 2-[(2S)-4-(2-{[(2S,4S)-4-{4-[4-({4-[3-(2,4-dihydroxy-5-methylphenyl)-5-hydroxy-1,2,4-triazol-4-yl]phenyl}methyl)piperazine-1-carbonyl]piperidin-1-yl}-1-methylpyrrolidin-2-yl]methoxy}-7-(naphthalen-1-yl)-5H,6H,8H-pyrido[3,4-d]pyrimidin-4-yl)-1-(prop-2-enoyl)piperazin-2-yl]acetonitrile]",pEC50,"[1]; Homo sapiens, MIA PaCa-2, 72 h",< 6.00
same,pIC50,KRAS(G12C) [2],> 7.00
same,DC50,KRAS(G12C) [3],> 1 µM
"C=CC(=O)N1CCN(c2nc(OC[C@@H]3C[C@@H](N(C)C(=O)C4CCN(Cc5ccc(-n6c(C(=O)NCC(F)(F)F)nnc6-c6cc(C(C)C)c(O)cc6O)cc5)CC4)CN3C)nc3c2CCN(c2cccc4cccc(Cl)c24)C3)C[C@@H]1CC#N [Compound 235, N-((3R,5S)-5-(((4-((S)-4-acryloyl-3-(cyanomethyl)piperazin-1-yl)-7-(8-chloronaphthalen-1-yl)-5,6,7,8-tetrahydropyrido[3,4-d]pyrimidin-2-yl)oxy)methyl)-1-methylpyrrolidin-3-yl)-1-(4-(3-(2,4-dihydroxy-5-isopropylphenyl)-5-((2,2,2-trifluoroethyl)carbamoyl)-4H-1,2,4-triazol-4-yl)benzyl)-N-methylpiperidine-4-carboxamide]",pEC50,"[1]; Homo sapiens, MIA PaCa-2, 72 h",6.00 to 7.00
same,pIC50,KRAS(G12C) [2],6.00 to 7.00
same,DC50,KRAS(G12C) [3],> 1 µM
"C=CC(=O)N1CCN(c2nc(OC[C@@H]3C[C@H](N4CCN(Cc5ccc(-n6c(O)nnc6-c6cc(C(C)C)c(O)cc6O)cc5)CC4)CN3C)nc3c2CCN(c2cccc4cccc(Cl)c24)C3)C[C@@H]1CC#N [Compound 241, 2-[(2S)-4-[7-(8-chloronaphthalen-1-yl)-2-{[(2S,4S)-4-[4-({4-[3-(2,4-dihydroxy-5-isopropylphenyl)-5-hydroxy-1,2,4-triazol-4-yl]phenyl}methyl)piperazin-1-yl]-1-methylpyrrolidin-2-yl]methoxy}-5H,6H,8H-pyrido[3,4-d]pyrimidin-4-yl]-1-(prop-2-enoyl)piperazin-2-yl]acetonitrile]",pEC50,"[1]; Homo sapiens, MIA PaCa-2, 72 h",6.00 to 7.00
same,pIC50,KRAS(G12C) [2],> 7.00
same,DC50,KRAS(G12C) [3],> 1 µM
"C=CC(=O)N1CCN(c2nc(OCCN3CCC(C(=O)N4CCN(Cc5ccc(-n6c(C(=O)NCC(F)(F)F)nnc6-c6cc(C)c(O)cc6O)cc5)CC4)CC3)nc3c2CCN(c2cccc4cccc(Cl)c24)C3)C[C@@H]1CC#N [Compound 251, (S)-4-(4-((4-(1-(2-((4-(4-acryloyl-3-(cyanomethyl)piperazin-1-yl)-7-(8-chloronaphthalen-1-yl)-5,6,7,8-tetrahydropyrido[3,4-d]pyrimidin-2-yl)oxy)ethyl)piperidine-4-carbonyl)piperazin-1-yl)methyl)phenyl)-5-(2,4-dihydroxy-5-methylphenyl)-N-(2,2,2-trifluoroethyl)-4H-1,2,4-triazole-3-carboxamide]",pEC50,[1]; 72 hr,6.00 to 7.00
same,pIC50,KRAS(G12C) [2],> 7.00
same,DC50,KRAS(G12C) [3],> 1 µM
"C=CC(=O)N1CCN(c2nc(OC[C@@H]3CC[C@H](CN4CCN(C(=O)C5CCN(Cc6ccc(-n7c(O)nnc7-c7cc(C)c(O)cc7O)cc6)CC5)CC4)N3C)nc3c2CCN(c2cccc4ccccc24)C3)C[C@@H]1CC#N [Compound 256, 2-[(2S)-4-(2-{[(2S,5R)-5-({4-[1-({4-[3-(2,4-dihydroxy-5-methylphenyl)-5-hydroxy-1,2,4-triazol-4-yl]phenyl}methyl)piperidine-4-carbonyl]piperazin-1-yl}methyl)-1-methylpyrrolidin-2-yl]methoxy}-7-(naphthalen-1-yl)-5H,6H,8H-pyrido[3,4-d]pyrimidin-4-yl)-1-(prop-2-enoyl)piperazin-2-yl]acetonitrile]",pEC50,"[1]; Homo sapiens, MIA PaCa-2, 72 h",< 6.00
same,pIC50,KRAS(G12C) [2],> 7.00
same,DC50,KRAS(G12C) [3],> 1 µM
"C=CC(=O)N1CCN(c2nc(OC[C@@H]3CC[C@H](CN4CCN(Cc5ccc(-n6c(C(=O)NCC)nnc6-c6cc(C(C)C)c(O)cc6O)cc5)CC4)N3C)nc3c2CCN(c2cccc4cccc(Cl)c24)C3)C[C@@H]1CC#N [Compound 263, 4-{4-[(4-{[(2R,5S)-5-({[7-(8-chloronaphthalen-1-yl)-4-[(3S)-3-(cyanomethyl)-4-(prop-2-enoyl)piperazin-1-yl]-5H,6H,8H-pyrido[3,4-d]pyrimidin-2-yl]oxy}methyl)-1-methylpyrrolidin-2-yl]methyl}piperazin-1-yl)methyl]phenyl}-5-(2,4-dihydroxy-5-isopropylphenyl)-N-ethyl-1,2,4-triazole-3-carboxamide]",pEC50,"[1]; Homo sapiens, MIA PaCa-2, 72 h",> 7.00
same,pIC50,KRAS(G12C) [2],> 7.00
same,DC50,KRAS(G12C) [3],> 1 µM
"C=CC(=O)N1CCN(c2nc(OCCN3CCN(C(=O)C4CCN(Cc5ccc(-n6c(C(=O)NCC(F)(F)F)nnc6-c6cc(C(C)C)c(O)cc6O)cc5)CC4)C[C@H]3CN(C)C)nc3c2CCN(c2cccc4cccc(Cl)c24)C3)C[C@@H]1CC#N [Compound 266, 4-(4-((4-((R)-4-(2-((4-((S)-4-acryloyl-3-(cyanomethyl)piperazin-1-yl)-7-(8-chloronaphthalen-1-yl)-5,6,7,8-tetrahydropyrido[3,4-d]pyrimidin-2-yl)oxy)ethyl)-3-((dimethylamino)methyl)piperazine-1-carbonyl)piperidin-1-yl)methyl)phenyl)-5-(2,4-dihydroxy-5-isopropylphenyl)-N-(2,2,2-trifluoroethyl)-4H-1,2,4-triazole-3-carboxamide]",pEC50,"[1]; Homo sapiens, MIA PaCa-2, 72 h",< 6.00
same,pIC50,KRAS(G12C) [2],6.00 to 7.00
same,DC50,KRAS(G12C) [3],0.1 to 1 µM
"(S)-4-(4-((4-(1-(2-((4-(4-acryloyl-3-(cyanomethyl)piperazin-1-yl)-7-(8-chloronaphthalen-1-yl)-5,6,7,8-tetrahydropyrido[3,4-d]pyrimidin-2-yl)oxy)ethyl)piperidine-4-carbonyl)piperazin-1-yl)methyl)phenyl)-5-(2,4-dihydroxy-5-methylphenyl)-N-(2,2,2-trifluoroethyl)-4H-1,2,4-triazole-3-carboxamide [Compound 257]",pEC50,[1]; 72 hr,6.00 to 7.00
same,pIC50,KRAS(G12C) [2],> 7.00
same,DC50,KRAS(G12C) [3],0.1 to 1 µM
"C=CC(=O)N1CCN(c2nc(OCCN3CCC(N4CCN(Cc5ccc(-n6c(O)nnc6-c6cc(C)c(O)cc6O)cc5)CC4)CC3)nc3c2CCN(c2cccc4cccc(Cl)c24)C3)C[C@@H]1CC#N [Compound 236, (S)-2-(1-acryloyl-4-(7-(8-chloronaphthalen-1-yl)-2-(2-(4-(4-(4-(3-(2,4-dihydroxy-5-methylphenyl)-5-hydroxy-4H-1,2,4-triazol-4-yl)benzyl)piperazin-1-yl)piperidin-1-yl)ethoxy)-5,6,7,8-tetrahydropyrido[3,4-d]pyrimidin-4-yl)piperazin-2-yl)acetonitrile]",pEC50,"[1]; Homo sapiens, MIA PaCa-2, 72 h",< 6.00
same,pIC50,KRAS(G12C) [2],> 7.00
same,DC50,KRAS(G12C) [3],> 1 µM
